Source: patent publication US11040040B2, “Methods of treating cancer” (Corvus Pharmaceuticals, Inc., priority 2017, dated 2021)

Legend:
syngeneic tumor models = assay: Syngeneic tumor models in mice, daily treatment; type: in vivo; conditions: multiple syngeneic tumor models
Method: (§1) Adenosine signaling via A2A receptor (A2AR) on immune cells suppresses anti-tumor immunity and limits the efficacy of immunotherapy, chemotherapy, CAR-T, and vaccines. […] In embodiments, CD73 expression, CD8 infiltration, TREG distribution, and gene expression signatures are evaluated in serial tumor biopsy specimens.

[1] = Phase 1/1b clinical trial, safety and tolerability (Step 1); type: in vivo, human; conditions: 48 patients treated in Step 1
From the text: FIG. 5 is an illustration of an exemplary Phase 1/1B clinical trial design.
Expansion cohorts include renal cell and non-small cell lung cancer
FIG. 12 provides a summary of data regarding treatment-related adverse events.
as §1

[2] = test system: non-small cell lung, melanoma, renal, triple negative breast, and other (bladder, prostate, head and neck, colorectal) tumors; assay: Phase 1/1b clinical trial, clinical activity / tumor regression; type: in vivo, human; conditions: single agent
Method: The waterfall plot includes all subjects from the clinical trial with available data, including all dosing levels and disease indications. CT scans of target lesions were performed prior to treatment and every 8 weeks post-treatment or at optimal time points. Target lesions were measured and the sum of longest dimensions (SLD) calculated. Subjects with regression of target tumor lesions are enriched for CD8 infiltration of tumors at baseline. […] The best change in SLD for each subject is shown in the waterfall plot colored by the percentage of CD8 infiltration in the center of the pre-treatment biopsy sample as measured by immunohistochemistry. […] A cutoff of 1% (rather than 4% for FIG. 1A) was used to classify subjects enriched for CD8 infiltration.
There were five prior regimens including TKIs, mTOR inhibitor and nivolumab. The patient ultimately failed each prior therapy.
as §1

[3] = test system: peripheral T cell receptor repertoire; assay: Deep sequencing of TCRb in PBMCs, Morisita Index and clonality; type: in vivo, human; conditions: subjects with baseline peripheral blood clonality within normal healthy range (<0.2); PBMCs day 0 vs day 28 to 56
Method: FIGS. 3A-3C: Peripheral blood mononuclear cells (PBMCs) were collected at day 0 and between day 28 and 56. Deep sequencing of TCRb and Moristia and clonality calculations were performed by Adaptive Biotechnologies (Seattle, Wash., USA). T cell receptor (TCR) repertoire clonality was assessed.
Clonality is a measure of the dominance of specific T cell clones within a sample. It can range from 0-1, with 0 meaning each clone appears only once and 1 meaning the sample has only copies of a single clone. […] Clonality<0.2 is within the normal range, >0.2 means that a few clones dominate the sample. Clonality is conceptually the opposite of diversity. A clonality<0.2 is diverse because there a lot of different clones and the sample is not dominated by one or a few clone.
A Morisita Index score indicates the similarity between two samples. […] The Morisita Index can range from 0-1, with 0 meaning the samples are completely different (no shared clones) and a score of 1 meaning the samples are the same. In embodiments, a Morisita Index score>0.9 means very little change (e.g., within the range of sample to sample variation), while a Morisita Index score<0.9 means there was a change within the sample.

adenosine signaling = assay: Functional inhibition of adenosine signaling in cancer patients; type: in vivo, human
Method: as §1

Cc1ccc(-c2nc(N)nc3c2nnn3Cc2cccc(COC3CCOC3)n2)o1 (stereo not shown) [CPI-444]
inhibition of tumor growth (syngeneic tumor models): dose-dependent inhibition of tumor growth | Grade 3 or 4 treatment related adverse events [1]: 1 | tolerability [1]: well tolerated | clinical activity ([2]; including patients who previously failed anti-PD-1 therapy): Evidence of clinical activity | tumor response (FIG. 6, FIGS. 7A-7B) ([2]; nivolumab refractory renal cancer, five prior regimens including TKIs, mTOR inhibitor and nivolumab): tumor regression | Morisita Index (change in peripheral TCR repertoire) [3]: < 0.9 | inhibition of adenosine signaling (adenosine signaling): functional inhibition of adenosine signaling
